The compounds below were run against T1, human NaV1.8 (Homo sapiens, UniProt Q9Y5Y9) (assay: Nav1.8 Qube® Assay (automated 384-well patch-clamp, inhibition of sodium current)). Conditions: human NaV1.8 channels stably expressed in HEK 293 cells, room temperature.
T1 construct: expressed in transfected cells
Assay type: cell-based
Method: Compounds were tested on human NaV1.8 and NaV1.5 channels stably expressed in human embryo kidney (HEK) 293 cells. Sodium current measurements on Qube® were conducted as follows: automated 384-well patch-clamp assays on the Qube® platform (Sophion Biosciences) were used to measure the inhibition of sodium flow through human NaV1.8 and NaV1.5 channels. Whole-cell voltage-clamp recordings were performed in QChips® (Sophion Biosciences) at room temperature. NaV1.8 current measurements on Qube® were obtained as follows: NaV1.8 currents were elicited with a 10 second 1 Hertz (Hz) pulse train from a holding potential of −90 millivolts (mV), delivered to the cells once per minute in the control condition (DMSO only) and after compound addition. The 1 hertz pulse train stimulation consisted of ten test pulses to 10 millivolt (mV) for 20 milliseconds (ms), each of which was followed by a 980 millisecond repolarization to −67 millivolts. At the end of the 10 second pulse train stimulation, a 5 second hyperpolarization step to −100 millivolt (mV) was used to recover NaV1.8 from fast inactivation. The peak currents elicited by the 1st and 10th test pulses were used to determine IC50 values for resting inhibition and inactivated state inhibition. NaV1.5 current measurements on Qube® were obtained as follows: NaV1.5 currents were elicited with a 20 second 3 Hertz pulse train in the control condition (DMSO only) and after compound addition. The pulse train consisted of sixty 20 millisecond test pulses to 0 millivolt from a holding potential of −80 millivolt (mV). The average peak currents elicited by the last 3 test pulses were used to determine IC50 values for NaV1.5 inhibition.
The following buffers were used for the Qube® recordings: External buffer for NaV1.8 Qube® recording: 150 NaCl, 2 CaCl2, 5 KCl, 1 Mg Cl2, 10 HEPES, 12 Dextrose; External buffer for Qube® NaV1.5 recording: 120 N-Methyl-D-Glucamine, 40 NaCl, 1 KCl, 2.7 CaCl2, 5 HEPES, 0.5 MgCl2; and Internal buffer for Qube® recording: 120 CsF, 30 CsCl, 10 EGTA, 5 HEPES, 5 NaF, 2 MgCl2.
For all Qube® experiments offline analysis was used to determine percent inhibition as a function of drug concentration. IC50 values were determined by fitting to the Hill equation.

T1 sequence (Q9Y5Y9 whole entry): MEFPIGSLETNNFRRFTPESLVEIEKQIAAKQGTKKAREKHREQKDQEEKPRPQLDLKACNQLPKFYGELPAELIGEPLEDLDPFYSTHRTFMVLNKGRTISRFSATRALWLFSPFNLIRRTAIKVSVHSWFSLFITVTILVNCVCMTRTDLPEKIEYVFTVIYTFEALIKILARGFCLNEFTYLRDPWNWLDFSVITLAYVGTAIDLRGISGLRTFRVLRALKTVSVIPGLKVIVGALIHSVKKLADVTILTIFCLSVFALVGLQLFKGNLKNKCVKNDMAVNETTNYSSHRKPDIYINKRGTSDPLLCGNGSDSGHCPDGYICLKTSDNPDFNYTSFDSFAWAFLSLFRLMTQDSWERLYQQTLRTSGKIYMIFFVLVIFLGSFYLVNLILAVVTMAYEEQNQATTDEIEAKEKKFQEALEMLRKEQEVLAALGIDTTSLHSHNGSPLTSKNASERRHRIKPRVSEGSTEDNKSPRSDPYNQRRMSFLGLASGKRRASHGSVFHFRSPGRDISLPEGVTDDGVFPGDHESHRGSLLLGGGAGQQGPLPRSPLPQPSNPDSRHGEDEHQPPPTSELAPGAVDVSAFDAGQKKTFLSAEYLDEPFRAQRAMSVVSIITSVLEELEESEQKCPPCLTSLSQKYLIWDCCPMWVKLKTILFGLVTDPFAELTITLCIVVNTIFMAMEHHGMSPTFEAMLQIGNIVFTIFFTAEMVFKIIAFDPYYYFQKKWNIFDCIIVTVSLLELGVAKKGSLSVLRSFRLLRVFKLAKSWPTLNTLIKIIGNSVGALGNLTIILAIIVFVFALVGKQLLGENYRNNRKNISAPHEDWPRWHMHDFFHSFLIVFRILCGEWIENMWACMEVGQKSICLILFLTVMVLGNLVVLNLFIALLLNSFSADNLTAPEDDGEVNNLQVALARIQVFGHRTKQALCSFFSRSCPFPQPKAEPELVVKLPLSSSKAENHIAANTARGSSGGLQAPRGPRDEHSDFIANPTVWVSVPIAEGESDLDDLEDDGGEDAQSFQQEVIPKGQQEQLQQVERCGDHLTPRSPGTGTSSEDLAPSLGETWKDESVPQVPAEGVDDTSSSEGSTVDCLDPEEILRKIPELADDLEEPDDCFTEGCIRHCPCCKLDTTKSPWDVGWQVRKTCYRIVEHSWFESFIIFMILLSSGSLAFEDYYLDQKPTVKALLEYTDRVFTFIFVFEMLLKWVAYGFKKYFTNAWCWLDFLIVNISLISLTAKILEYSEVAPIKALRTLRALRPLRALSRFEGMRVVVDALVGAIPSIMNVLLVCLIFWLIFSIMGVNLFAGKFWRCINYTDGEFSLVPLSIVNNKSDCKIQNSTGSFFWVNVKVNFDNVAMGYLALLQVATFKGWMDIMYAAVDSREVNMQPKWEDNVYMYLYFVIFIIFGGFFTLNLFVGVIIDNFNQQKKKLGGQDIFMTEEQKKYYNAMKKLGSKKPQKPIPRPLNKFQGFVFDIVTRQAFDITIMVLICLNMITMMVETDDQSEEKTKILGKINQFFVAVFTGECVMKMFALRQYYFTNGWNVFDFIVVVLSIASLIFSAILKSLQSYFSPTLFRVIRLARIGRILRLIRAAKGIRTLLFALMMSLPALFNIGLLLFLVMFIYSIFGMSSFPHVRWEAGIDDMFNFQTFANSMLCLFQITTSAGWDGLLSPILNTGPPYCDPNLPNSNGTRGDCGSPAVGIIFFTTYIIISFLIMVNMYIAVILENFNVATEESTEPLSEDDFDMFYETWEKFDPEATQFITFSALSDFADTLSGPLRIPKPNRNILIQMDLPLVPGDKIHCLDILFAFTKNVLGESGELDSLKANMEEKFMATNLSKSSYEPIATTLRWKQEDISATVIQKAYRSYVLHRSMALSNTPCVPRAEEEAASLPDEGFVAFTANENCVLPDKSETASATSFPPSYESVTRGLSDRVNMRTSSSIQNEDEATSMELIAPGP

IC50 [nM] | SMILES
4.1 | CC(N1CCC(C(NC(=O)N2CCNC(=O)[C@H]2C)c2ccc(F)c(Cl)c2)CC1)C(F)(F)F (single isomer, unassigned) [Example 18A]
6.87 | CC(N1CCC(C(NC(=O)N2CCNC(=O)[C@H]2C)c2ccc(F)c(Cl)c2)CC1)C(F)(F)F (single isomer, unassigned) [Example 18B]
91.6 | CC(N1CCC(C(NC(=O)N2CCNC(=O)[C@H]2C)c2ccc(F)c(Cl)c2)CC1)C(F)(F)F (single isomer, unassigned) [Example 18C]
83.5 | CC(N1CCC(C(NC(=O)N2CCNC(=O)[C@H]2C)c2ccc(F)c(Cl)c2)CC1)C(F)(F)F (single isomer, unassigned) [Example 18D]
5.75 | C[C@@H]1C(=O)NCCN1C(=O)NC(c1ccc(F)c(Cl)c1)C1CCC2(CC1)CC2(F)F (single isomer, unassigned) [Example 19A]
3.23 | C[C@@H]1C(=O)NCCN1C(=O)NC(c1ccc(F)c(Cl)c1)C1CCC2(CC1)CC2(F)F (single isomer, unassigned) [Example 19B]
15.7 | C[C@@H]1C(=O)NCCN1C(=O)NC(c1ccc(F)c(Cl)c1)C1CCC2(CC1)CC2(F)F (single isomer, unassigned) [Example 19C]
10 | C[C@@H]1C(=O)NCCN1C(=O)NC(c1ccc(F)c(Cl)c1)C1CCC2(CC1)CC2(F)F (single isomer, unassigned) [Example 19D]
1.37 | C[C@@H]1C(=O)NCCN1C(=O)NC(c1ccc(F)c(Cl)c1F)C1CC(C(F)(F)F)C1 (single isomer, unassigned) [Example 20A]
9.02 | C[C@@H]1C(=O)NCCN1C(=O)NC(c1ccc(F)c(Cl)c1F)C1CC(C(F)(F)F)C1 (single isomer, unassigned) [Example 20C]
116 | C[C@@H]1C(=O)NCCN1C(=O)NC(c1ccc(F)c(Cl)c1F)C1CC(C(F)(F)F)C1 (single isomer, unassigned) [Example 20D]
1.08 | C[C@@H]1C(=O)NCCN1C(=O)NC(c1ccc(F)c(Cl)c1F)C1CC(C2CC2)C1 (single isomer, unassigned) [Example 21A, (2R)-N-((R or S)-(3-chloro-2,4-difluoro-phenyl)(trans or cis-3-cyclopropylcyclobutyl)methyl)-2-methyl-3-oxopiperazine-1-carboxamide]
2.87 | C[C@@H]1C(=O)NCCN1C(=O)NC(c1ccc(F)c(Cl)c1F)C1CC(C2CC2)C1 (single isomer, unassigned) [Example 21B, (2R)-N-((R or S)-(3-chloro-2,4-difluoro-phenyl)(cis or trans-3-cyclopropylcyclobutyl)methyl)-2-methyl-3-oxopiperazine-1-carboxamide]
59.7 | C[C@@H]1C(=O)NCCN1C(=O)NC(c1ccc(F)c(Cl)c1F)C1CC(C2CC2)C1 (single isomer, unassigned) [Example 21C, (2R)-N-((S or R)-(3-chloro-2,4-difluoro-phenyl)(trans or cis-3-cyclopropyl-cyclobutyl)-methyl)-2-methyl-3-oxopiperazine-1-carboxamide]
128 | C[C@@H]1C(=O)NCCN1C(=O)NC(c1ccc(F)c(Cl)c1F)C1CC(C2CC2)C1 (single isomer, unassigned) [Example 21D, (2R)-N-((S or R)-(3-chloro-2,4-difluoro-phenyl)(cis or trans-3-cyclopropyl-cyclobutyl)-methyl)-2-methyl-3-oxopiperazine-1-carboxamide]
2.9 | C[C@@H]1C(=O)NCCN1C(=O)NC(c1ccc(F)c(Cl)c1F)C1CC2(C1)CC2(F)F (single isomer, unassigned) [Example 22A, (2R)-N-((R or S)-(3-chloro-2,4-difluoro-phenyl)(trans or cis-1,1-difluoro-spiro[2,3]-hexan-5-yl)methyl)-2-methyl-3-oxopiperazine-1-carboxamide]
5.89 | C[C@@H]1C(=O)NCCN1C(=O)NC(c1ccc(F)c(Cl)c1F)C1CC2(C1)CC2(F)F (single isomer, unassigned) [Example 22B, (2R)-N-((R or S)-(3-chloro-2,4-difluoro-phenyl)(cis or trans-1,1-difluoro-spiro[2,3]-hexan-5-yl)methyl)-2-methyl-3-oxopiperazine-1-carboxamide]
84.5 | C[C@@H]1C(=O)NCCN1C(=O)NC(c1ccc(F)c(Cl)c1F)C1CC2(C1)CC2(F)F (single isomer, unassigned) [Example 22C, (2R)-N-((S or R)-(3-chloro-2,4-difluoro-phenyl)(trans or cis-1,1-difluoro-spiro[2.3]-hexan-5-yl)methyl)-2-methyl-3-oxopiperazine-1-carboxamide]

Further lines, the compound ahead of its results:

SMILES | IC50 [nM]
O=C1CN(C(=O)NC(c2ccc(F)c(Cl)c2)C23CCC(C(F)(F)F)(CC2)CC3)CCN1 (single isomer, unassigned) [Example 12A, N-((R or S)-(3-chloro-4-fluoro-phenyl)(4-(trifluoro-methyl)bicyclo[2.2.2]octan-1-yl)methyl)-3-oxopiperazine-1-carboxamide] | 343
O=C1CN(C(=O)NC(c2ccc(F)c(Cl)c2)C23CCC(C(F)(F)F)(CC2)CC3)CCN1 (single isomer, unassigned) [Example 12B, N-((S or R)-(3-chloro-4-fluoro-phenyl)(4-(trifluoro-methyl)bicyclo[2.2.2]octan-1-yl)methyl)-3-oxopiperazine-1-carboxamide] | 11.5
C[C@@H]1C(=O)NCCN1C(=O)NC(c1ccc(F)c(Cl)c1F)C1CCC(F)(F)CC1 (single isomer, unassigned) [Example 13A, (2R)-N-((R or S)-(3-chloro-2,4-difluoro-phenyl)(4,4-difluoro-cyclohexyl)methyl)-2-methyl-3-oxo-piperazine-1-carboxamide] | 13.4
C[C@@H]1C(=O)NCCN1C(=O)NC(c1ccc(F)c(Cl)c1F)C1CCC(F)(F)CC1 (single isomer, unassigned) [Example 13B, (2R)-N-((S or R)-(3-chloro-2,4-difluoro-phenyl)(4,4-difluoro-cyclohexyl)methyl)-2-methyl-3-oxo-piperazine-1-carboxamide] | 726
C[C@@H]1C(=O)NCCN1C(=O)NC(c1ccc(F)c(Cl)c1)C1CCC(F)(F)CC1 (single isomer, unassigned) [Example 14A, (2R)-N-((R or S)-(3-chloro-4-fluoro-phenyl)(4,4-difluoro-cyclohexyl)methyl)-2-methyl-3-oxo-piperazine-1-carboxamide] | 18.5
C[C@@H]1C(=O)NCCN1C(=O)NC(c1ccc(F)c(Cl)c1)C1CCC(F)(F)CC1 (single isomer, unassigned) [Example 14B, (2R)-N-((S or R)-(3-chloro-4-fluoro-phenyl)(4,4-difluoro-cyclohexyl)methyl)-2-methyl-3-oxo-piperazine-1-carboxamide] | 359
C[C@@H]1C(=O)NCCN1C(=O)NC(c1ccc(F)c(Cl)c1)C1CCN(CC(F)(F)F)CC1 (single isomer, unassigned) [Example 15A] | 28.3
C[C@@H]1C(=O)NCCN1C(=O)NC(c1ccc(F)c(Cl)c1)C1CCN(CC(F)(F)F)CC1 (single isomer, unassigned) [Example 15B] | 553
C[C@@H]1C(=O)NCCN1C(=O)NC(c1ccc(Cl)cc1)C1CCN(CC(F)(F)F)CC1 (single isomer, unassigned) [Example 16A, (2R)-N-((R or S)-(4-chlorophenyl)(1-(2,2,2-trifluoroethyl)piperidin-4-yl)methyl)-2-methyl-3-oxopiperazine-1-carboxamide] | 366
C[C@@H]1C(=O)NCCN1C(=O)NC(c1ccc(Cl)cc1)C1CCN(CC(F)(F)F)CC1 (single isomer, unassigned) [Example 16B, (2R)-N-((S or R)-(4-chlorophenyl)(1-(2,2,2-trifluoroethyl)piperidin-4-yl)methyl)-2-methyl-3-oxopiperazine-1-carboxamide] | 936
O=C1CN(C(=O)NC(c2ccc(F)c(Cl)c2)C2CCN(CC(F)(F)F)CC2)CCN1 (single isomer, unassigned) [Example 17A, N-((R or S)-(3-chloro-4-flurophenyl)(1-(2,2,2-trifluoroethyl)piperidin-4-yl)methyl)-3-oxopiperazine-1-carboxamide] | 1630
O=C1CN(C(=O)NC(c2ccc(F)c(Cl)c2)C2CCN(CC(F)(F)F)CC2)CCN1 (single isomer, unassigned) [Example 17B, N-((S or R)-(3-chloro-4-fluorophenyl)(1-(2,2,2-trifluoroethyl)piperidin-4-yl)methyl)-3-oxopiperazine-1-carboxamide] | 136

— US20220380338A1, “CYCLOALKYL 3-OXOPIPERAZINE CARBOXAMIDES AND CYCLOHETEROALKYL 3-OXOPIPERAZINE CARBOXAMIDES AS NAV1.8 INHIBITORS” (Merck Sharp & Dohme LLC, priority 2021, published 2022)
